Experimental data taken from patent US10010504B2, “Compositions and methods including celecoxib and plumbagin relating to treatment of cancer” (The Penn State Research Foundation, priority 2013, dated 2018).

System: UACC 903 melanoma cells
Assay: Thermal stability in DMSO at 60° C., efficacy by MTS assay
Conditions: DMSO solution

Row | Compound | heating time acceptable without decreasing efficacy [min] | effect of prolonged exposure to 60° C. on compound activity
1 | Cc1ccc(-c2cc(C(F)(F)F)nn2-c2ccc(S(N)(=O)=O)cc2)cc1 [celecoxib, 4-[5-(4-Methylphenyl)-3-(trifluoromethyl)-1H-pyrazol-1-yl]benzenesulfonamide] | ≤ 20 | 
2 | CC1=CC(=O)c2c(O)cccc2C1=O [plumbagin, 5-hydroxy-2-methyl-1,4-napthoquinone] |  | did not affect compound activity
